{"source": "paper PMC11505029", "about": "“Isatin Bis-Imidathiazole Hybrids Identified as FtsZ Inhibitors with On-Target Activity Against Staphylococcus aureus” (Antibiotics, 2024)", "key": {"[1]": {"system": "S. aureus MRSA 2", "assay": "dose-response against clinical isolate MRSA 2", "assay_type": "cell-based", "settings": "Staphylococcus aureus, mean [95% confidence interval]", "method": "(§1) The antimicrobial activity of the compounds was assessed by a well-established broth microdilution procedure in microtiter plates and in compliance with the Clinical and laboratory Standard Institute (CLSI) guidelines (Clinical and Laboratory Standards Institute, Wayne, PA, USA). In short, microbial inocula were prepared at 0.5 McFarland in PBS and, subsequently, bacterial suspensions were diluted 1:200 in Mueller–Hinton broth (Sigma-Aldrich, St. Louis, MO, USA), while fungal inoculum was diluted 1:20 in RPMI-1640 medium (Gibco®, ThermoFisher Scientific Inc., Waltham, MA, USA), containing 2% glucose and 0.3% levo-glutamine buffered to pH 7.0 with 0.165 M 3-(N-morpholino)propanesulfonic acid (MOPS). A total of 100 µL of these microbial suspensions were introduced in a 96-well microplate and incubated with 100 µL of the compounds, two-fold serially diluted in the range of 100–0.19 µM. Positive controls (microbial suspensions in regular media), negative controls (only compounds), and solvent controls (microbial suspensions incubated with DMSO dilutions) were included in the tests. The plate was incubated at 37 °C for 24 h, and subsequently, the optical density at 630 nm (OD630nm) was spectrophotometrically measured. Each experiment was carried out with three technical replicates (i.e., three wells per sample) and repeated at least two times for statistical power. […]"}, "[2]": {"system": "C. albicans ATCC 10231", "assay": "broth microdilution antimicrobial activity, C. albicans reference strain", "assay_type": "cell-based, Candida albicans", "settings": "100 μM, growth relative to positive control, mean ± SD", "method": "(§2) Reference bacterial strains of Staphylococcus aureus (ATCC 25923), Escherichia coli (ATCC 25922), and Candida albicans (ATCC 10231) were used in this study as Gram-positive, Gram-negative, and fungal models, respectively. These reference strains were purchased from the American Type Culture Collection (ATCC, Manassas, VA, USA); bacterial cultures were routinely grown at 37 °C on 5% blood agar plate, while fungal cultures on Sabouraud Dextrose Agar (Biolife Italiana S.r.l., Milan, Italy).\n(§3) The dry powder of the isatin derivatives was resuspended in dimethylsulfoxide (DMSO) at 20 mM and used as stock solutions. For biological investigations, compounds were used in the range 100–0.78 µM, and the solvent in the corresponding percentage range.\n(§4) The antimicrobial activity of the compounds was assessed by a well-established broth microdilution procedure in microtiter plates and in compliance with the Clinical and laboratory Standard Institute (CLSI) guidelines (Clinical and Laboratory Standards Institute, Wayne, PA, USA). In short, microbial inocula were prepared at 0.5 McFarland in PBS and, subsequently, bacterial suspensions were diluted 1:200 in Mueller–Hinton broth (Sigma-Aldrich, St. Louis, MO, USA), while fungal inoculum was diluted 1:20 in RPMI-1640 medium (Gibco®, ThermoFisher Scientific Inc., Waltham, MA, USA), containing 2% glucose and 0.3% levo-glutamine buffered to pH 7.0 with 0.165 M 3-(N-morpholino)propanesulfonic acid (MOPS). A total of 100 µL of these microbial suspensions were introduced in a 96-well microplate and incubated with 100 µL of the compounds, two-fold serially diluted in the range of 100–0.19 µM. Positive controls (microbial suspensions in regular media), negative controls (only compounds), and solvent controls (microbial suspensions incubated with DMSO dilutions) were included in the tests. The plate was incubated at 37 °C for 24 h, and subsequently, the optical density at 630 nm (OD630nm) was spectrophotometrically measured. Each experiment was carried out with three technical replicates (i.e., three wells per sample) and repeated at least two times for statistical power. […] IC50 values, corresponding to the concentration of the compound giving rise to an inhibition of growth of 50%, were obtained by interpolation on dose–response curves generated by plotting the percentages of growth inhibition, relative to the positive control (set to 100% of growth), as a function of the tested concentrations (on a logarithm scale). Statistical analysis was carried out using GraphPad Prism version 9.4.1 for Windows (GraphPad Software, San Diego, CA, USA, www.graphpad.com)."}, "[3]": {"system": "S. aureus ATCC 25923 biofilm", "assay": "antibiofilm activity, crystal violet staining", "assay_type": "cell-based, Staphylococcus aureus", "settings": "200–25 µM; inhibition of biofilm production; CV staining", "method": "For the evaluation of the bacterial biofilm formation, an established protocol with minor modifications was used. In short, a bacterial suspension of S. aureus ATCC 25923 was prepared in TSB (Tryptic Soy broth (TSB, Sigma-Aldrich, St. Louis, MO, USA) supplemented with 1% of glucose and adjusted to a final density of 10^5 CFU/mL. Aliquots of 100 µL of the culture were transferred to a 96-well flat-bottom polystyrene microplate, and then incubated at 37 °C for 90 min to promote bacterial adhesion. Thereafter, wells were slowly rinsed with PBS to remove non-attached cells, and 100 µL of medium containing the 2-fold serial dilutions of the compounds were added. After incubation at 37 °C for 24 h, the free-floating cells were removed, and the biofilms were carefully washed with PBS, and incubated for 1 h at 60 °C. Bacterial biomass was quantified by a standardized crystal violet (CV) staining. Briefly, 100 µL of CV solution (0.1% in water) were added to each well containing a completely air-dried biofilm, and incubated for 30 min at 37 °C. […] Finally, the colored supernatants were transferred to a new microplate and the OD550nm was read. The inhibitory effect of the compounds on biofilm production was evaluated in comparison to the positive control (S. aureus grown in absence of compounds), and negative control (only medium)."}, "[4]": {"system": "S. aureus ATCC 25923", "assay": "broth microdilution antimicrobial activity, S. aureus reference strain", "assay_type": "cell-based, Staphylococcus aureus", "method": "as §2, §3, §4"}, "[5]": {"system": "E. coli ATCC 25922", "assay": "broth microdilution antimicrobial activity, E. coli reference strain", "assay_type": "cell-based, Escherichia coli", "settings": "100 μM, growth relative to positive control, mean ± SD", "method": "as §2, §3, §4"}, "[6]": {"system": "S. aureus MRSA 4", "assay": "dose-response against clinical isolate MRSA 4", "assay_type": "cell-based", "settings": "Staphylococcus aureus, mean [95% confidence interval]", "method": "as §1"}, "[7]": {"system": "S. aureus MRSA 1", "assay": "dose-response against clinical isolate MRSA 1", "assay_type": "cell-based", "settings": "Staphylococcus aureus, mean [95% confidence interval]", "method": "as §1"}, "[8]": {"system": "human red blood cells (hRBCs)", "assay": "hemolytic assay", "assay_type": "cell-based", "settings": "for Hemolytic activity, percentage values: mean ± SD", "method": "The hemolytic activity of some selected compounds was evaluated as the amount of hemoglobin released by the disruption of human red blood cells (hRBCs). For the experiments, fresh hRBCs, obtained from peripheral blood of anonymous blood donors available for research purposes, were collected by centrifugation at 1500 g for 10 min, washed 3 times with PBS, and resuspended to a final concentration of 4% w/v hRBCs in PBS. Then, 100 µL of hRBCs suspension and an equal volume of the 2-fold dilutions of the […] were mixed in a 96-well plate and incubated for 1 h at 37 °C. […] Untreated hRBCs (incubated with PBS) and hRBCs incubated with 1% Triton X-100 were employed as negative and positive controls, respectively. The hemolysis percentage was calculated as [OD405nm (sample) − OD405nm (negative control)]/[OD405nm (positive control) − OD405nm (negative control)] × 100. Minimal hemolytic concentrations (MHCs) were defined as the compound concentrations causing 10% hemolysis."}}, "note": "“Also recorded” adds a separate entry of the source."}
{"compound": "O=C1Nc2cc(OC(F)(F)F)ccc2C1(c1c(Cl)nc2sccn12)c1c(Cl)nc2sccn12", "note": "[Compound 11, 3,3-bis(6-Chloroimidazo[2,1-b]thiazol-5-yl)-6-(trifluoromethoxy)indolin-2-one]", "values": [{"measurement": "IC50", "setting": "[1]", "value": 27.5, "unit": "µM"}, {"measurement": "Microbial growth, C. albicans", "setting": "[2]", "value": "did not inhibit the growth"}, {"measurement": "activity at 100 µM", "setting": "[2]; Candida albicans, ATCC10231, read-out: Microbial growth, C. albicans", "value": "108 ± 8.5", "unit": "%"}, {"measurement": "biofilm biomass compared to the untreated control", "setting": "[3]", "value": "< 10", "unit": "%"}, {"measurement": "SI (selectivity index, CC50/IC50)", "setting": "[4]; CC50 Vero / IC50 S. aureus", "value": 4.6}, {"measurement": "IC50", "setting": "[4]; Staphylococcus aureus, ATCC25923, S. aureus ATCC 25923, mean [95% confidence interval]", "value": 13.8, "unit": "µM"}, {"measurement": "Microbial growth, E. coli", "setting": "[5]", "value": "did not inhibit the growth"}, {"measurement": "activity at 100 µM", "setting": "[5]; Escherichia coli, ATCC25922, read-out: Microbial growth, E. coli", "value": "108 ± 2.4", "unit": "%"}, {"measurement": "IC50", "setting": "[6]", "value": 11.3, "unit": "µM"}, {"measurement": "IC50", "setting": "[7]", "value": 21.4, "unit": "µM"}, {"measurement": "Hemolytic activity, percentage values", "setting": "[8]; 1.56 µM", "value": "0.9 ± 1.8", "unit": "%"}, {"measurement": "Hemolytic activity, percentage values", "setting": "[8]; 3.125 µM", "value": "1.1 ± 1.2", "unit": "%"}, {"measurement": "Hemolytic activity, percentage values", "setting": "[8]; 6.25 µM", "value": "2.3 ± 0.2", "unit": "%"}, {"measurement": "Hemolytic activity, percentage values", "setting": "[8]; 12.5 µM", "value": "2.2 ± 0.5", "unit": "%"}, {"measurement": "Hemolytic activity, percentage values", "setting": "[8]; 25 µM", "value": "1.8 ± 1.5", "unit": "%"}, {"measurement": "Hemolytic activity, percentage values", "setting": "[8]; 50 µM", "value": "0.7 ± 1.5", "unit": "%"}, {"measurement": "Hemolytic activity, percentage values", "setting": "[8]; 100 µM", "value": "1.1 ± 0.4", "unit": "%"}, {"measurement": "hemolytic activity", "setting": "[8]; range 100–1.56 µM", "value": "did not show an appreciable hemolytic activity; also recorded: no hemolytic property"}]}
